Reference: US20100063032A1, “SUBSTITUTED PYRIDO[2,3-D]PYRIMIDINE DERIVATIVES AS CANNABINOID-1 RECEPTOR MODULATORS” (priority 2007, published 2010)

Columns and labels:
[1] = target: recombinant human CB1 receptor (Homo sapiens, UniProt P21554); assay: Cannabinoid Receptor-1 (CB1) Binding Assay ([3H]CP-55940 displacement); conditions: recombinant human CB1 in CHO cell membranes, 0.6 nM [3H]CP-55940
Experimental: Binding affinity determination is based on recombinant human CB1 receptor expressed in Chinese Hamster Ovary (CHO) cells (Felder et al, Mol. Pharmacol. 48: 443-450, 1995). Total assay volume is 250 μl (240 μl CB1 receptor membrane solution plus 5 μl test compound solution plus 5 μl [3H]CP-55940 solution). Final concentration of [3H]CP-55940 is 0.6 nM. Binding buffer contains 50 mM Tris-HCl, pH 7.4, 2.5 mM EDTA, 5 mM MgCl28, 0.5 mg/mL fatty acid free bovine serum albumin and protease inhibitors (Cat#P8340, from Sigma). To initiate the binding reaction, 5 μl of radioligand solution is added, the mixture is incubated with gentle shaking on a shaker for 1.5 h at 30° C. The binding is terminated by using 96-well harvester and filtering through GF/C filter presoaked in 0.05% polyethylenimine. The bound radiolabel is quantitated using scintillation counter. Apparent binding affinities for various compounds are calculated from IC50 values (DeBlasi et al., Trends Pharmacol Sci 10: 227-229, 1989).

[2] = target: recombinant human CB1 receptor expressed in CHO cells (Homo sapiens, UniProt P21554); assay: Cannabinoid Receptor-1 (CB1) Functional Activity Assay (intracellular cAMP, forskolin); assay type: cell-based; conditions: for EC50: cAMP level with forskolin; for functional mode at CB1 receptor: cAMP, Biological Example 3
recombinant human CB1 receptor expressed in CHO cells, sequence (P21554 whole entry): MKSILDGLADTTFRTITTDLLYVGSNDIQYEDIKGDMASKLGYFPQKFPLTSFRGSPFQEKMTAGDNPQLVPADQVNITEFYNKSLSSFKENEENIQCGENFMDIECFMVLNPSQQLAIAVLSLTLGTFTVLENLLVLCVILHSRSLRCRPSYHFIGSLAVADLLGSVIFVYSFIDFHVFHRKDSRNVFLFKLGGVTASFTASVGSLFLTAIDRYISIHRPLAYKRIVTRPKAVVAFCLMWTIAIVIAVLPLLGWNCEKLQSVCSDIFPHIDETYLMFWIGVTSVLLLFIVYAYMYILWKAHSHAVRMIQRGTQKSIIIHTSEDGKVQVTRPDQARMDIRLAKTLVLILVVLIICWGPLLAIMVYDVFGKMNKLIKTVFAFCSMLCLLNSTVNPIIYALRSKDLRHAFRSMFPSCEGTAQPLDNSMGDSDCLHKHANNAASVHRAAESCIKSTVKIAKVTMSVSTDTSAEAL
Experimental: The functional activation of CB1 receptor is based on recombinant human CB1 receptor expressed in CHO cells (Felder et al, Mol. Pharmacol. 48: 443-450, 1995). To determine the agonist activity or inverse agonist activity of any test compound, 50 ul of CB1-CHO cell suspension are mixed with test compound and 70 ul assay buffer containing 0.34 mM 3-isobutyl-1-methylxanthine and 5.1 uM of forskolin in 96-well plates. The assay buffer is comprised of Earle's Balanced Salt Solution supplemented with 5 mM MgCl2, 1 mM glutamine, 10 mM HEPES, and 1 mg/mL bovine serum albumin. The mixture is incubated at room temperature for 30 minutes, and terminated by adding 30 ul/well of 0.5M HCl. The total intracellular cAMP level is quantitated using the New England Nuclear Flashplate and cAMP radioimmunoassay kit.
To determine the antagonist activity of test compound, the reaction mixture also contains 0.5 nM of the agonist CP55940 (or 50 nM of methanandamide), and the reversal of the CP55940 (or methanandamide) effect is quantitated with increasing concentration of the test compound. Intracellular cAMP is determined as described above. An IC50 value for the test compound is calculated from the titration curve.
Alternatively, a series of dose response curves for the agonist CP55940 (or methanandamide) is performed with increasing concentration of the test compound in each of the dose response curves, and a Schild analysis is carried to calculate the Kb value which is an estimation of test compound binding affinity.

recombinant human CB1 receptor, sequence (P21554 whole entry): as above

SMILES	IC50 [1]	EC50 [2]	functional mode at CB1 receptor [2]
CC(C)(C)c1nc(N)c2cc(-c3ccc(Cl)cc3)c(-c3ccc(Cl)cc3Cl)nc2n1 [Example 3, 2-Tert-butyl-6-(4-chlorophenyl)-7-(2,4-dichlorophenyl)pyrido[2,3-d]pyrimidin-4-amine]	11 nM	< 15 nM	functional inverse agonists
CC(C)(C)c1nc2nc(-c3ccccc3Cl)c(-c3ccc(Cl)cc3)cc2c(=O)[nH]1 [Example 11, 2-Tert-butyl-7-(2-chlorophenyl)-6-(4-chlorophenyl)pyrido[2,3-d]pyrimidin-4(3H)-one]	7 nM	< 15 nM	functional inverse agonists
CC(C)(C)c1nc2nc(-c3ccc(-c4cn[nH]c4)cc3Cl)c(-c3ccc(Cl)cc3)cc2c(=O)[nH]1 [Example 25, 2-Tert-butyl-6-(4-chlorophenyl)-7-[2-chloro-4-(1H-pyrazol-4-yl)phenyl]pyrido[2,3-d]pyrimidin-4(3H)-one]	10 nM	< 15 nM	functional inverse agonists
CC(C)(C)Nc1nc(C(C)(C)C)nc2nc(-c3ccccc3Cl)c(-c3ccc(Cl)cc3)cc12 [Example 48, N,2-Di-tert-butyl-7-(2-chlorophenyl)-6-(4-chlorophenyl)pyrido[2,3-d]pyrimidin-4-amine]	3 nM	< 15 nM	functional inverse agonists
CC(C)(C)c1nc(NCC(F)(F)F)c2cc(-c3ccc(Br)cc3)c(-c3ccccc3Cl)nc2n1 [Example 58, 6-(4-Bromophenyl)-2-tert-butyl-7-(2-chlorophenyl)-N-(2,2,2-trifluoroethyl)pyrido[2,3-d]pyrimidin-4-amine]	2 nM	< 15 nM	functional inverse agonists
Cn1c(-c2ccc(Cl)cc2)nc2nc(-c3ccccc3Cl)c(-c3ccc(Cl)cc3)cc2c1=O [Example 60, 7-(2-Chlorophenyl)-2,6-bis(4-chlorophenyl)-3-methylpyrido[2,3-d]pyrimidin-4(3H)-one]	4 nM	< 15 nM	functional inverse agonists
CC(C)(C)c1nc(C#N)c2cc(-c3ccc(C#N)cc3)c(-c3ccccc3Cl)nc2n1 [Example 69, 2-Tert-butyl-7-(2-chlorophenyl)-6-(4-cyanophenyl)pyrido[2,3-d]pyrimidine-4-carbonitrile]	2 nM	< 15 nM	functional inverse agonists
CC(C)(C)c1nc(-c2ccc(F)cc2)c2cc(-c3ccc(Cl)cc3)c(-c3ccccc3Cl)nc2n1 [Example 72, 2-Tert-butyl-7-(2-chlorophenyl)-6-(4-chlorophenyl)-4-(4-fluorophenyl)pyrido[2,3-d]pyrimidine]	0.6 nM	< 15 nM	functional inverse agonists
